Like-named read-outs stand apart in the source and are kept apart here.
Legend:
[1] = molecular target: T1, Human cytomegalovirus DNA polymerase (Human cytomegalovirus, UniProt P08546); test: HCMV polymerase assay (AlphaLISA); assay type: biochemical; settings: HCMV DNA polymerase 0.2 nM, 60 minutes at 37° C.; read-out: CMV (IC50)
T1 construct: made in house; host or cells: SF21 insect cells (baculovirus vector)
Experimental: Human cytomegalovirus and varicella zoster virus DNA polymerases were expressed via baculovirus vector in SF21 cells and purified. Heterodimeric nucleic acid substrate used in the herpesvirus polymerase reactions was generated by annealing a 59-mer template to a 17-mer digoxigenin-labeled primer. Polymerase (HCMV final concentration of 0.2 nM; VZV final concentration of 0.4 nM) was combined with an inhibitor compound or DMSO in assay buffer (10 mM HEPES, pH 7.5, 25 mM KCl, 25 mM NaCl, 5 mM MgCl2, 5% glycerol, 0.67 mg/ml bovine serum albuminutes, and 1 mM tris(2-carboxyethyl)phosphine), and this mixture was pre-incubated for 30 minutes at room temperature in 384-well microtiter plates. The polymerization reaction was initiated by the addition of template/primer substrate (final concentration: 1.6 nM), and dNTPs (final concentration: 24 nM dCTP, 24 nMdGTP, 16 nM dATP, 16 nM dTTP, and 0.8 nM biotin-dUTP). After 60 minutes incubation at 37° C., reactions were terminated with quench buffer (25 mM HEPES pH 7.5, 100 mM NaCl, 0.25% Tween-20, 12 mM EDTA, and 1 mg/ml bovine serum albumin). Incorporation of biotinylated UTP was detected with 2.5-ug/ml anti-DIG AlphaLISA acceptor beads and 5-10 ug/ml streptavidin AlphaLISA donor beads (Perkin Elmer). Compound effects were normalized to the window defined by the controls (DMSO only and pre-quenched wells) and were fit using a 4-parameter algorithm to report an IC50.

HCMV Strain AD169 = test: Viral qPCR assay, HCMV in MRC-5 cells; assay type: cell-based, Human cytomegalovirus; settings: read-out: CMV MRC5 Cell (EC50)
Experimental: (§1) MRCS cells, Vero cells, and MeWo cells were obtained from ATCC and were maintained at 37° C./5% CO2/90% relative humidity in Minimal Essential Medium with 10% fetal bovine serum, […] L-glutamine, 100 units/ml penicillin and 100 ug/ml streptomycin. Assay plates were prepared by dispensing compounds dissolved in DMSO into wells of 384 well collagen-coated plates using an ECHO acoustic dispenser. Each compound was tested in a 10-point, serial 3-fold dilution. Controls included uninfected cells and infected cells treated only with DMSO. Assays were initiated by mixing selected cells, in suspension, with virus, and dispensing 50 μl/well infected cells to pre-plated compounds. Plates were incubated at 37° C./5% CO2/90% relative humidity for ˜72 hrs to permit genomic replication, and infected cells were lysed by the addition of an equal volume of lysis buffer (10 mM Tris-HCl, pH8, 50 mM KCl, 2 mM MgCl2, 0.45% NP-40, 0.45% Tween-20, and 100 μg/ml proteinase K). An aliquot of the lysate was transferred to a 384-well PCR plate and incubated at 56° C. for 1 hour and then at 95° C. for 10 min. Levels of a viral gene and of the cellular control, PPIA (Thermo Fisher Assay ID=Hs04194521_s1), were measured in separate 10 μL qPCR assays using TaqMan® Gene Expression Master Mix (Applied Biosystems), and an 7900HT Fast Real-Time PCR System with 384-Well Block Module. 7-point, serial 10-fold dilutions of a plasmid standard were run on each plate to generate a standard curve, and genome copies numbers were calculated by plotting experimental Ct onto linear regression of the standard curve. Viral genome copy numbers were normalized by cellular control copy number, and compound effects were normalized to the window defined by the controls. Calculated % effects were fit using a 4-parameter algorithm, and EC50 was reported.
as §1, with “gene” for “gene and of the cellular control, PPIA (Thermo Fisher Assay ID=Hs04194521_s1),”, “in” for “in separate”, “Compound effects on viral” for “Viral”, “number” for “numbers were normalized by cellular control copy number, and compound effects”
HCMV: Strain AD169 Street was assayed in MRC-5 cells and was used at 0.05-0.1 pfu/cell. The assays were performed in either growth media or in the same media with 50% fetal bovine serum. Primer-probe set was Thermo Fisher Assay ID=AIFATFK.

VZV = test: Viral qPCR assay, VZV in MRC5 cells; assay type: cell-based, varicella zoster virus; settings: read-out: VZV MRC5 Cell (IC50)
Experimental: as §1
as §1, with “gene” for “gene and of the cellular control, PPIA (Thermo Fisher Assay ID=Hs04194521_s1),”, “in” for “in separate”, “Compound effects on viral” for “Viral”, “number” for “numbers were normalized by cellular control copy number, and compound effects”
(§2) VZV: Strain Street was maintained as an infected cell stock in MRC-5 cells. It was assayed in MeWo or MRCS cells and was used at 0.04-0.1 pfu/cell. The assays were performed in growth medium. Primer-probe set was Thermo Fisher Assay ID=AIPAEXQ. HSV-1: Strain F Street was assayed in Vero or MRCS cells and was used at 0.0005-0.004 pfu/cell in growth medium. Primer-probe set was Thermo Fisher Assay ID=AIBJZIB

HSV-1 Strain F = test: Viral qPCR assay, HSV-1 in MRC5 cells; assay type: cell-based, Herpes Simplex Virus type 1; settings: read-out: HSV1 MRC5 Cell (EC50)
Experimental: as §1
as §1, with “gene” for “gene and of the cellular control, PPIA (Thermo Fisher Assay ID=Hs04194521_s1),”, “in” for “in separate”, “Compound effects on viral” for “Viral”, “number” for “numbers were normalized by cellular control copy number, and compound effects”
as §2

HSV2 = test: Viral qPCR assay, HSV2 in MRC5 cells; assay type: cell-based, Herpes Simplex Virus type 2; settings: read-out: HSV2 MRC5 Cell (EC50)
Experimental: as §1
as §1, with “gene” for “gene and of the cellular control, PPIA (Thermo Fisher Assay ID=Hs04194521_s1),”, “in” for “in separate”, “Compound effects on viral” for “Viral”, “number” for “numbers were normalized by cellular control copy number, and compound effects”

[2] = Human alphaherpesvirus 3, MRC5, 72 h
[3] = Human alphaherpesvirus 1, MRC5, 72 h
[4] = Human alphaherpesvirus 2, MRC5, 72 h
[5] = Human betaherpesvirus 5, AD169, MRC5, 72 h

T1 sequence (P08546 whole entry): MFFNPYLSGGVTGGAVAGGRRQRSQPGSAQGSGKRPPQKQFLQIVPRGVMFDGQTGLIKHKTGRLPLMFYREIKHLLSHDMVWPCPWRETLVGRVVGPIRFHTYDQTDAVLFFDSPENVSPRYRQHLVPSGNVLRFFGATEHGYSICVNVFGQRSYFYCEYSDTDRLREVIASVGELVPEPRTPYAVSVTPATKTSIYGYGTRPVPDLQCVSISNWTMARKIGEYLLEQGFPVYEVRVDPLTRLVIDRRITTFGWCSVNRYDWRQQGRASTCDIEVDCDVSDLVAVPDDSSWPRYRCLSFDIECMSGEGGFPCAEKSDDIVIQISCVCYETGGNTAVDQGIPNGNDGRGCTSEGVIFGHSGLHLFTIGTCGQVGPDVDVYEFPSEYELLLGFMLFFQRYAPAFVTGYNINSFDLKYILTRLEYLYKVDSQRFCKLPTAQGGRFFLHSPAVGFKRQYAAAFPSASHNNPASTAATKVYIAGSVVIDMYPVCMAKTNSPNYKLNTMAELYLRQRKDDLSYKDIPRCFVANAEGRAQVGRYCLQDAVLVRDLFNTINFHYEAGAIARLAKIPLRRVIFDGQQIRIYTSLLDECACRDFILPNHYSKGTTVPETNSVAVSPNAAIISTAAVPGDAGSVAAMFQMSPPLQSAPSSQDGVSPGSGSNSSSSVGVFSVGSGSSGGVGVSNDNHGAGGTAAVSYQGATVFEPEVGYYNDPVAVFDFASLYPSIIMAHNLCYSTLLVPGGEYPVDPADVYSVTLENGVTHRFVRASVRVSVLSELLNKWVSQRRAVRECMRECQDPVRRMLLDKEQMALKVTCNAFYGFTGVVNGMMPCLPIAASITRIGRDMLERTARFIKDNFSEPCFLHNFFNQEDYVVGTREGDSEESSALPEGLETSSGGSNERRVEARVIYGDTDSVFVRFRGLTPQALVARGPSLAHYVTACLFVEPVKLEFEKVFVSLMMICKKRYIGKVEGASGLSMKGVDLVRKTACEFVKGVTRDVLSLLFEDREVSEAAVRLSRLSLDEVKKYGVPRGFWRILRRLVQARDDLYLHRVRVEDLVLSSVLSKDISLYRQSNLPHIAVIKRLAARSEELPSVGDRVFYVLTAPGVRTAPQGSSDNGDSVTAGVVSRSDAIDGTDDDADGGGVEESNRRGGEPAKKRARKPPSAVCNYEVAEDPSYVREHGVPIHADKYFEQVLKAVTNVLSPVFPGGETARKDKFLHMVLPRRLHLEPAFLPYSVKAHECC

## O=C1CC[C@H](CN2Cc3c(C(=O)NCc4ccc(Cl)cc4)nn(C4CCOC4)c3C2)N1 (single isomer, unassigned) [Compound 34]
[1]
  IC50: 51.6 nM
HCMV Strain AD169; MRC5 cells, ~72 hrs
  EC50: 1800 nM
VZV; ~72 hrs
  IC50: 2050 nM
HSV-1 Strain F; ~72 hrs
  EC50: 790 nM
HSV2; ~72 hrs
  EC50: 1850 nM

## O=C1CC[C@@H](CN2Cc3c(C(=O)NCc4ccc(Cl)cc4)nn(C4CCOC4)c3C2)N1 (single isomer, unassigned) [Compound 43]
[1]
  IC50: 58.2 nM
HCMV Strain AD169; MRC5 cells, ~72 hrs
  EC50: 3290 nM
VZV; [2]
  IC50: 2640 nM
HSV-1 Strain F; [3]
  EC50: 3550 nM
HSV2; [4]
  EC50: 3490 nM

## O=C1CC[C@@H](CN2Cc3c(C(=O)NCc4ccc(Cl)cc4)nn(C4CCOC4)c3C2)N1 (single isomer, unassigned) [Compound 44]
[1]
  IC50: 33.8 nM
HCMV Strain AD169; MRC5 cells, ~72 hrs
  EC50: 1100 nM
VZV; ~72 hrs
  IC50: 2370 nM
HSV-1 Strain F; ~72 hrs
  EC50: 2500 nM
HSV2; ~72 hrs
  EC50: 2950 nM

## CC(C1CC(F)C(=O)N1)N1Cc2c(C(=O)NCc3ccc(Cl)cc3)nn(C)c2C1 (single isomer, unassigned) [Compound 73]
[1]
  IC50: 11.2 nM
HCMV Strain AD169; [5]
  EC50: 134 nM
VZV; [2]
  IC50: 534 nM
HSV-1 Strain F; [3]
  EC50: 614 nM
HSV2; [4]
  EC50: 464 nM

## CCC1c2c(c(C(=O)NCc3ccc(Cl)cc3)nn2C)CN1C[C@@H]1CCC(=O)N1 (single isomer, unassigned) [Compound 103]
[1]
  IC50: 17.4 nM
HCMV Strain AD169; MRC5 cells, ~72 hrs
  EC50: 157 nM
VZV; ~72 hrs
  IC50: 104 nM
HSV-1 Strain F; ~72 hrs
  EC50: 172 nM
HSV2; ~72 hrs
  EC50: 63 nM

## CCC1c2c(c(C(=O)NCc3ccc(Cl)cc3)nn2C)CN1C[C@H]1CCC(=O)N1 (single isomer, unassigned) [Compound 105]
[1]
  IC50: 23 nM
HCMV Strain AD169; MRC5 cells, ~72 hrs
  EC50: 479 nM
VZV; ~72 hrs
  IC50: 289 nM
HSV-1 Strain F; ~72 hrs
  EC50: 335 nM
HSV2; ~72 hrs
  EC50: 274 nM

## CC(=O)OCC1c2c(c(C(=O)NCc3ccc(Cl)cc3)nn2C)CN1CC1CCC(=O)N1 (single isomer, unassigned) [Compound 120]
[1]
  IC50: 121 nM
HCMV Strain AD169; MRC5 cells, ~72 hrs
  EC50: 642 nM
VZV; ~72 hrs
  IC50: 1780 nM
HSV-1 Strain F; ~72 hrs
  EC50: 2740 nM
HSV2; ~72 hrs
  EC50: 2020 nM

## O=C1CC[C@H](CN2Cc3c(C(=O)NCc4ccc(Cl)cc4)nn(-c4nccs4)c3C2)N1 [Compound 7]
[1]
  IC50: 9.82 nM
HCMV Strain AD169; [5]
  EC50: 142 nM
VZV; [2]
  IC50: 190 nM
HSV-1 Strain F; [3]
  EC50: 118 nM
HSV2; [4]
  EC50: 86.6 nM

## O=C1CC[C@H](CN2Cc3c(C(=O)NCc4ccc(Cl)cc4)nn(-c4ncc5cnccn45)c3C2)N1 [Compound 8]
[1]
  IC50: 18.5 nM
HCMV Strain AD169; MRC5 cells, ~72 hrs
  EC50: 678 nM
VZV; ~72 hrs
  IC50: 479 nM
HSV-1 Strain F; ~72 hrs
  EC50: 299 nM
HSV2; ~72 hrs
  EC50: 226 nM

## Cc1nc(-n2nc(C(=O)NCc3ccc(Cl)cc3)c3c2CN(C[C@H]2CCC(=O)N2)C3)sc1C [Compound 10]
[1]
  IC50: 20.9 nM
HCMV Strain AD169; [5]
  EC50: 434 nM
VZV; [2]
  IC50: 172 nM
HSV-1 Strain F; [3]
  EC50: 189 nM
HSV2; [4]
  EC50: 124 nM

## Cc1cnc(-n2nc(C(=O)NCc3ccc(Cl)cc3)c3c2CN(C[C@H]2CCC(=O)N2)C3)s1 [Compound 11]
[1]
  IC50: 22.7 nM
HCMV Strain AD169; [5]
  EC50: 263 nM
VZV; [2]
  IC50: 170 nM
HSV-1 Strain F; [3]
  EC50: 172 nM
HSV2; [4]
  EC50: 50.6 nM

## Cc1csc(-n2nc(C(=O)NCc3ccc(Cl)cc3)c3c2CN(C[C@H]2CCC(=O)N2)C3)n1 [Compound 12]
[1]
  IC50: 23 nM
HCMV Strain AD169; [5]
  EC50: 175 nM
VZV; [2]
  IC50: 220 nM
HSV-1 Strain F; [3]
  EC50: 160 nM
HSV2; [4]
  EC50: 44.8 nM

## O=C1CC[C@H](CN2Cc3c(C(=O)NCc4ccc(Cl)cc4)nn(-c4ccccn4)c3C2)N1 [Compound 13]
[1]
  IC50: 25.8 nM
HCMV Strain AD169; [5]
  EC50: 547 nM
VZV; [2]
  IC50: 207 nM
HSV-1 Strain F; [3]
  EC50: 284 nM
HSV2; [4]
  EC50: 74.6 nM

## CCOc1cnc(-n2nc(C(=O)NCc3ccc(Cl)cc3)c3c2CN(C[C@H]2CCC(=O)N2)C3)nc1 [Compound 16]
[1]
  IC50: 31.2 nM
HCMV Strain AD169; [5]
  EC50: 298 nM
VZV; [2]
  IC50: 208 nM
HSV-1 Strain F; [3]
  EC50: 233 nM
HSV2; [4]
  EC50: 74.5 nM

## O=C1CC[C@H](CN2Cc3c(C(=O)NCc4ccc(Cl)cc4)nn(-c4ncc5ccccc5n4)c3C2)N1 [Compound 18]
[1]
  IC50: 71.1 nM
HCMV Strain AD169; [5]
  EC50: 555 nM
VZV; [2]
  IC50: 368 nM
HSV-1 Strain F; [3]
  EC50: 229 nM
HSV2; [4]
  EC50: 108 nM

## Cc1cn(C)c(-n2nc(C(=O)NCc3ccc(Cl)cc3)c3c2CN(C[C@H]2CCC(=O)N2)C3)n1 [Compound 19]
[1]
  IC50: 90.6 nM
HCMV Strain AD169; [5]
  EC50: 399 nM
VZV; [2]
  IC50: 535 nM
HSV-1 Strain F; [3]
  EC50: 650 nM
HSV2; [4]
  EC50: 333 nM

## Cn1ccnc1-n1nc(C(=O)NCc2ccc(Cl)cc2)c2c1CN(C[C@H]1CCC(=O)N1)C2 [Compound 20]
[1]
  IC50: 115 nM
HCMV Strain AD169; [5]
  EC50: 448 nM
VZV; [2]
  IC50: 309 nM
HSV-1 Strain F; [3]
  EC50: 449 nM
HSV2; [4]
  EC50: 143 nM

— patent US20240059693A1, “FUSED BICYCLIC PYRAZOLE DERIVATIVES AND METHODS OF USE THEREOF FOR THE TREATMENT OF HERPESVIRUSES” (Merck Sharp & Dohme LLC, priority 2020, published 2024)
